Source: US20240174641A1, “HETEROCYCLIC COMPOUNDS CAPABLE OF […]” (Boehringer Ingelheim International GmbH, priority 2022, published 2024)

Key:
dog STING (dSTING) = test: Dog differential scanning fluorimetry (DSF) assay, thermal shift of dog STING protein; format: binding; details: DSF (dDSF); 100 μM compound, 3 μM dog STING protein; Tm with ligand minus Tm of protein alone
How it was run: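 Dog STING residues 149–375, His-tag removed by TEV, tested at 3 μM with 100 μM compound, 5× SYPRO Orange and 2% DMSO in 20 mM Tris, 150 mM NaCl, pH 7.5. Heated 15–95 °C in 0.5 °C steps. Tm from Boltzmann fit, duplicates averaged; ΔTm relative to protein alone.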

STING = STING (Canis lupus familiaris, UniProt A0A8I3MH52); test: Dog whole blood (dWB) assay, IFNb secretion by ELISA; format: cell-based; details: canine Interferon-beta (IFNb) ELISA, 4 h incubation at 37° C.
Sequence of STING (A0A8I3MH52 1-374): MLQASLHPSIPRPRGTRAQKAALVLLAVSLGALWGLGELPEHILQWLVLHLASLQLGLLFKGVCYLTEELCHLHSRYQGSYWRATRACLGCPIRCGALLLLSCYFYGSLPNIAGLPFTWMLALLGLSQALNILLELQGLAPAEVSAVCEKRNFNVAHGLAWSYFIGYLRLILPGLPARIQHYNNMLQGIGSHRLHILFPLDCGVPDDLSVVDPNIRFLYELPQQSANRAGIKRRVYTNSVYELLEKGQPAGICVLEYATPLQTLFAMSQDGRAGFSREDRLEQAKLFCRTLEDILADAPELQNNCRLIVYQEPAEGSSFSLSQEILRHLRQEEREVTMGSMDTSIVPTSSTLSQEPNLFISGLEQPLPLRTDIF
How it was run: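 Citrated dog whole blood (stored overnight at 4 °C) was preincubated with compound for 60 min at room temperature, top concentration 10 μM with about 1:4 steps and 0.1% DMSO. It was then incubated 4 h at 37 °C, with cGAMP added only to the high-control wells. Plasma IFNb was measured by canine ELISA (A450), normalised to the cGAMP-stimulated and unstimulated controls, and EC50 was fitted with a 4-parameter logistic model.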

Compound: Cc1cccc2c(-c3c(F)cc(F)c4nn(C)cc34)nn(-c3ccc(N4C[C@H]5C[C@@H]4C[C@@H]5C(=O)O)nc3)c12 (single isomer, unassigned) [Example 47-2]
- Delta TM (dog STING (dSTING)): 35.5 °C
- EC50 (STING): 200 nM

Compound: Cc1cc(F)cc2c(-c3c(F)ccc4nn(C)cc34)nn(-c3ccc(N4C[C@@H]5[C@H](C4)[C@H]5C(=O)O)nc3)c12 [Example 14, (1R,5S,6R)-3-(5-{5,5″-Difluoro-2″,7-dimethyl-1H,2″H-[3,4″-biindazol]-1-yl}pyridin-2-yl)-3-azabicyclo[3.1.0]hexane-6-carboxylic acid]
- Delta TM (dog STING (dSTING)): 38.0 °C
- EC50 (STING): 391 nM

Compound: Cc1cccc2c(-c3ccc(F)c4nn(C)cc34)nn(-c3ccc(N4CCC(C(=O)O)CC4)nc3)c12 [Example 4, 1-(5-{7″-Fluoro-2″,7-dimethyl-1H,2″H-[3,4″-biindazol]-1-yl}pyridin-2-yl)piperidine-4-carboxylic acid]
- Delta TM (dog STING (dSTING)): 31.0 °C
- EC50 (STING): 757 nM

Compound: Cc1cccc2c(-c3c(F)cc(F)c4nn(C)cc34)nn(-c3ccc(N4CC[C@@H](CC(=O)O)C4)nc3)c12 [Example 45, 2-[(3S)-1-(5-{5″,7″-difluoro-2″,7-dimethyl-1H,2″H-[3,4″-biindazol]-1-yl}pyridin-2-yl)pyrrolidin-3-yl]acetic acid]
- Delta TM (dog STING (dSTING)): 33.0 °C
- EC50 (STING): 601 nM

Compound: CC(=O)N1CCN(c2ccc(-n3nc(-c4c(F)cc(F)c5nn(C)cc45)c4cc(F)cc(C)c43)cn2)CC1 [Example 68]
- Delta TM (dog STING (dSTING)): 28.5 °C
- EC50 (STING): 106 nM

Compound: Cc1cccc2c(-c3cccc4nn(C)c(F)c34)nn(-c3ccc(N4CCN(C=O)CC4)nc3)c12 [Example 9, 4-(5-{3″-Fluoro-2″,7-dimethyl-1H,2″H-[3,4″-biindazol]-1-yl}pyridin-2-yl)piperazine-1-carbaldehyde]
- Delta TM (dog STING (dSTING)): 28.5 °C
- EC50 (STING): 192 nM

Compound: CC(=O)N1CCN(c2ccc(-n3nc(-c4cccc5nn(C)c(F)c45)c4ccc(F)c(C)c43)cn2)CC1 [Example 66, 1-[4-(5-{5″,6-difluoro-2″,7-dimethyl-1H,2″H-[3,4″-biindazol]-1-yl}pyridin-2-yl)piperazin-1-yl]ethan-1-one]
- Delta TM (dog STING (dSTING)): 25.8 °C
- EC50 (STING): 179 nM

Compound: Cc1cccc2c(-c3cccc4nn(C)c(F)c34)nn(-c3ccc(N4CC5CCC4CC5C(=O)O)nc3)c12 (single isomer, unassigned) [Example 20-3, 2-(5-{3'-fluoro-2',7-dimethyl-1H,2'H-[3,4'-biindazol]-1-yl}pyridin-2-yl)-2-azabicyclo[2.2.2]octane-5-carboxylic acid]
- Delta TM (dog STING (dSTING)): 35.9 °C
- EC50 (STING): 195 nM

Compound: Cc1cc(F)cc2c(-c3cccc4nn(C)c(F)c34)nn(-c3ccc(N4CCC(C(=O)O)CC4)nc3)c12 [Example 58, 1-(5-{3″,5-difluoro-2″,7-dimethyl-1H,2″H-[3,4″-biindazol]-1-yl}pyridin-2-yl)piperidine-4-carboxylic acid]
- Delta TM (dog STING (dSTING)): 33.0 °C
- EC50 (STING): 207 nM

Compound: CC(=O)N1C[C@H]2C[C@@H]1CN2c1ccc(-n2nc(-c3c(F)ccc4nn(C)cc34)c3cccc(C)c32)cn1 [Example 31, 1-[(1R,4R)-5-(5-{5″-fluoro-2″,7-dimethyl-1H,2″H-[3,4″-biindazol]-1-yl}pyridin-2-yl)-2,5-diazabicyclo[2.2.1]heptan-2-yl]ethan-1-one]
- Delta TM (dog STING (dSTING)): 30.5 °C
- EC50 (STING): 101 nM

Compound: Cc1cccc2c(-c3c(F)cc(F)c4nn(C)cc34)nn(-c3ccc(N4C[C@@H]5[C@H](C4)[C@H]5C(=O)O)nc3)c12 [Example 7, (1R,5S,6S)-3-(5-{5″,7″-Difluoro-2″,7-dimethyl-1H,2″H-[3,4″-biindazol]-1-yl}pyridin-2-yl)-3-zabicyclo[3.1.0]hexane-6-carboxylic acid]
- Delta TM (dog STING (dSTING)): 35.5 °C
- EC50 (STING): 250 nM

Compound: Cc1cccc2c(-c3ccc(F)c4nn(C)cc34)nn(-c3ccc(N4C[C@@H]5[C@H](C4)[C@H]5C(=O)O)nc3)c12 [Example 3, (1R,5S,6R)-3-(5-{7″-Fluoro-2″,7-dimethyl-1H,2″H-[3,4″-biindazol]-1-yl}pyridin-2-yl)-3-azabicyclo[3.1.0]hexane-6-carboxylic acid]
- Delta TM (dog STING (dSTING)): 32.2 °C
- EC50 (STING): 730 nM

Compound: Cc1cccc2c(-c3c(F)ccc4nn(C)cc34)nn(-c3ccc(N4CCC(C(=O)O)CC4)nc3)c12 [Example 6, 1-(5-{5″-Fluoro-2″,7-dimethyl-1H,2″H-[3,4″-biindazol]-1-yl}pyridin-2-yl)piperidine-4-carboxylic acid]
- Delta TM (dog STING (dSTING)): 35.5 °C
- EC50 (STING): 243 nM

Compound: CC(=O)N1CCN(c2ccc(-n3nc(-c4c(F)ccc5nn(C)cc45)c4cc(F)cc(C)c43)cn2)CC1 [Example 63, 1-[4-(5-{5,5″-difluoro-2″,7-dimethyl-1H,2″H-[3,4″-biindazol]-1-yl}pyridin-2-yl)piperazin-1-yl]ethan-1-one]
- Delta TM (dog STING (dSTING)): 27.4 °C
- EC50 (STING): 96.8 nM

Compound: CC(=O)N1C[C@H]2C[C@@H]1CN2c1ccc(-n2nc(-c3cccc4nn(C)c(F)c34)c3cccc(C)c32)cn1 [Example 22, 1-[(1R,4R)-5-(5-{3″-fluoro-2″,7-dimethyl-1H,2″H-[3,4″-biindazol]-1-yl}pyridin-2-yl)-2,5-diazabicyclo[2.2.1]heptan-- 2-yl]ethan1-one]
- Delta TM (dog STING (dSTING)): 30.4 °C
- EC50 (STING): 244 nM

Compound: Cc1cccc2c(-c3c(F)cc(F)c4nn(C)cc34)nn(-c3ccc(N4C[C@@H]5C[C@H]4C[C@H]5C(=O)O)nc3)c12 (single isomer, unassigned) [Example 47-1]
- Delta TM (dog STING (dSTING)): 34.0 °C
- EC50 (STING): 628 nM

Compound: Cc1cc(F)cc2c(-c3cccc4nn(C)c(F)c34)nn(-c3ccc(N4C[C@@H]5[C@H](C4)[C@H]5C(=O)O)nc3)c12 [Example 10, (1R,5S,6R)-3-(5-{3′,5-Difluoro-2′,7-dimethyl-1H,2′H-[3,4′-biindazol]-1-yl}pyridin-2-yl)-3-azabicyclo[3.1.0]hexane-6-carboxylic acid]
- Delta TM (dog STING (dSTING)): 33.1 °C
- EC50 (STING): 350 nM

Compound: Cc1cccc2c(-c3ccc(F)c4nn(C)c(F)c34)nn(-c3ccc(N4CCC(C(=O)O)CC4)nc3)c12 [Example 53, 1-(5-{3″,7″-difluoro-2″,7-dimethyl-1H,2″H-[3,4″-biindazol]-1-yl}pyridin-2-yl)piperidine-4-carboxylic acid]
- Delta TM (dog STING (dSTING)): 33.0 °C
- EC50 (STING): 654 nM
